{"source": "patent US11691980B2", "about": "“Liphagal analog and multi-targeted kinase inhibitor containing liphagal or analog thereof” (TOHOKU UNIVERSITY, priority 2017, dated 2023)", "format_in_all_cases": "biochemical", "key": {"HPK2": {"target": "T1, HPK2 (Homo sapiens, UniProt Q9H2X6)", "T1 construct": "purchased Carna Biosciences", "experiment": "mobility shift assay"}, "HPK4": {"target": "T2, HPK4 (Homo sapiens, UniProt Q8NE63)", "T2 construct": "purchased Carna Biosciences", "experiment": "mobility shift assay"}, "OK1δ": {"target": "T3, OK1δ (Homo sapiens, UniProt P48730)", "T3 construct": "purchased Carna Biosciences", "experiment": "mobility shift assay"}, "RSK2": {"target": "T4, RSK2 (Homo sapiens, UniProt P51812)", "T4 construct": "purchased Carna Biosciences", "experiment": "mobility shift assay"}, "KIT(T670I)": {"target": "T5, KIT(T670I) (Homo sapiens, UniProt P10721, T670I)", "T5 construct": "purchased Carna Biosciences", "experiment": "mobility shift assay"}, "KIT(V560G)": {"target": "T6, KIT(V560G) (Homo sapiens, UniProt P10721, V560G)", "T6 construct": "purchased Carna Biosciences", "experiment": "mobility shift assay"}, "RSK1": {"target": "T7, RSK1 (Homo sapiens, UniProt Q15418)", "T7 construct": "purchased Carna Biosciences", "experiment": "mobility shift assay"}, "LYNa": {"target": "T8, LYNa (Homo sapiens, UniProt P07948)", "T8 construct": "purchased Carna Biosciences", "experiment": "mobility shift assay"}, "FGFR2": {"target": "T9, FGFR2 (Homo sapiens, UniProt P21802)", "T9 construct": "purchased Carna Biosciences", "experiment": "mobility shift assay"}, "Erk5": {"target": "T10, Erk5 (Homo sapiens, UniProt Q13164)", "T10 construct": "purchased Carna Biosciences", "experiment": "mobility shift assay"}, "EFHB2": {"target": "T11, EFHB2 (Homo sapiens, UniProt P29323)", "T11 construct": "purchased Carna Biosciences", "experiment": "mobility shift assay"}, "EGFR(T790/L858R)": {"target": "T12, EGFR(T790/L858R) (Homo sapiens, UniProt P00533, L858R/T790M)", "T12 construct": "purchased Carna Biosciences", "experiment": "mobility shift assay"}, "PKCα": {"target": "T13, PKCα (Homo sapiens, UniProt P17252)", "T13 construct": "purchased Carna Biosciences", "experiment": "mobility shift assay"}, "SGK3": {"target": "T14, SGK3 (Homo sapiens, UniProt Q96BR1)", "T14 construct": "purchased Carna Biosciences", "experiment": "mobility shift assay"}, "PIM 1": {"target": "T15, PIM 1 (Homo sapiens, UniProt P11309)", "T15 construct": "purchased Carna Biosciences", "experiment": "mobility shift assay"}, "CDK4/CycD3": {"target": "CDK4/CycD3 (Homo sapiens, UniProt P11802)", "experiment": "IC50 by mobility shift assay", "details": "Table 3, CDK4, mobility shift assay; read-out: IC50 (μM), Kinase CDK4/CycD3", "source_text": "Next, the compounds produced in Production Examples described above were each assessed for its inhibitory activity against CDK4 by mobility shift assay. In addition, a combination showing the highest inhibitory activity is indicated by italics."}, "EPHA6": {"target": "T16, EPHA6 (Homo sapiens, UniProt Q9UF33)", "T16 construct": "purchased Carna Biosciences", "experiment": "mobility shift assay"}, "BLK": {"target": "T17, BLK (Homo sapiens, UniProt P51451)", "T17 construct": "purchased Carna Biosciences", "experiment": "mobility shift assay"}, "EPHA2": {"target": "T18, EPHA2 (Homo sapiens, UniProt P29317)", "T18 construct": "purchased Carna Biosciences", "experiment": "mobility shift assay"}, "JAK3": {"target": "T19, JAK3 (Homo sapiens, UniProt P52333)", "T19 construct": "purchased Carna Biosciences", "experiment": "mobility shift assay"}, "ROCK2": {"target": "T20, ROCK2 (Homo sapiens, UniProt O75116)", "T20 construct": "purchased Carna Biosciences", "experiment": "mobility shift assay"}, "SkMLCK": {"target": "T21, SkMLCK (Homo sapiens, UniProt Q9H1R3)", "T21 construct": "purchased Carna Biosciences", "experiment": "mobility shift assay"}, "NEK4": {"target": "T22, NEK4 (Homo sapiens, UniProt P51957)", "T22 construct": "purchased Carna Biosciences", "experiment": "mobility shift assay"}, "p38δ": {"target": "T23, p38δ (Homo sapiens, UniProt O15264)", "T23 construct": "purchased Carna Biosciences", "experiment": "mobility shift assay"}, "RON": {"target": "T24, RON (Homo sapiens, UniProt Q04912)", "T24 construct": "purchased Carna Biosciences", "T24 sequence (Q04912 25-1400)": "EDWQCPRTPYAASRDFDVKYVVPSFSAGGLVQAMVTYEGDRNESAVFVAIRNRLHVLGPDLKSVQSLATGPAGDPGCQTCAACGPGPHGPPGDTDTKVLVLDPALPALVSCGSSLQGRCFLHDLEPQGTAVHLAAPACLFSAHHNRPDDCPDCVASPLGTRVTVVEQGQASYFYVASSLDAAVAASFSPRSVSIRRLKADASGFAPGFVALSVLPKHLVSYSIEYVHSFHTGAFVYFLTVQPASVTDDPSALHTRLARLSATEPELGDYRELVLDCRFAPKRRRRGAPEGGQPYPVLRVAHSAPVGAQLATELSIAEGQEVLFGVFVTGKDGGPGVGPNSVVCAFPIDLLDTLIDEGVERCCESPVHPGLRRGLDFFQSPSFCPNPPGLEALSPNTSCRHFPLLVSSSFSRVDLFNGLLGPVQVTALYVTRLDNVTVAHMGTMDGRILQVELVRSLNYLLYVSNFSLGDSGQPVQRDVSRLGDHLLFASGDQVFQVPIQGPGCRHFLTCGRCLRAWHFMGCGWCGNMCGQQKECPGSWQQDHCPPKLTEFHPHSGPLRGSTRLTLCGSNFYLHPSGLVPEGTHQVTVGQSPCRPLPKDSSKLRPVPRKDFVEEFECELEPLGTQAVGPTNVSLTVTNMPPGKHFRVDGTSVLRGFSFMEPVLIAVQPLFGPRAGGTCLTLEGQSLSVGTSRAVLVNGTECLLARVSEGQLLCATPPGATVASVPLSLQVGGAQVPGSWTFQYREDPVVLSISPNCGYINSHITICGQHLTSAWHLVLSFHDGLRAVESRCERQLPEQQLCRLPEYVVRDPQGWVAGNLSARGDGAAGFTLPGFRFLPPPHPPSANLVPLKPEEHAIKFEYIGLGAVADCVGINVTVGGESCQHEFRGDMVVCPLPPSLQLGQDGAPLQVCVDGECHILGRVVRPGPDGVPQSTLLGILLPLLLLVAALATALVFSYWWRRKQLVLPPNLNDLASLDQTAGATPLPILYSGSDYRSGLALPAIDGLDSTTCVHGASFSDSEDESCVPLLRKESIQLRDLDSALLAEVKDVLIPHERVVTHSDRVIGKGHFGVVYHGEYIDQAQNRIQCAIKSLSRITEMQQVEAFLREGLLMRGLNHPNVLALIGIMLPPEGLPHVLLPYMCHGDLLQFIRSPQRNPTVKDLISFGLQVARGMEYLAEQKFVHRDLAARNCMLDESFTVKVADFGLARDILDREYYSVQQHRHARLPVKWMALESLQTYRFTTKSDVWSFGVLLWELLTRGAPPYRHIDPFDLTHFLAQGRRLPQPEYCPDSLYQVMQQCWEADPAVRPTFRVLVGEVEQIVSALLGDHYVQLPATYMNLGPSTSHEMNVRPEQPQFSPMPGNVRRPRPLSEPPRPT", "experiment": "mobility shift assay"}, "FGR": {"target": "T25, FGR (Homo sapiens, UniProt P09769)", "T25 construct": "purchased Carna Biosciences", "experiment": "mobility shift assay"}, "NEK2": {"target": "T26, NEK2 (Homo sapiens, UniProt P51955)", "T26 construct": "purchased Carna Biosciences", "experiment": "mobility shift assay"}, "PDGFRα(V561D)": {"target": "T27, PDGFRα(V561D) (Homo sapiens, UniProt P16234, V561D)", "T27 construct": "purchased Carna Biosciences", "experiment": "mobility shift assay"}, "EGFR": {"target": "T28, EGFR (Homo sapiens, UniProt P00533)", "T28 construct": "purchased Carna Biosciences", "experiment": "mobility shift assay"}, "PKCl": {"target": "T29, PKCl (Homo sapiens, UniProt P41743)", "T29 construct": "purchased Carna Biosciences", "T29 sequence (P41743 whole entry)": "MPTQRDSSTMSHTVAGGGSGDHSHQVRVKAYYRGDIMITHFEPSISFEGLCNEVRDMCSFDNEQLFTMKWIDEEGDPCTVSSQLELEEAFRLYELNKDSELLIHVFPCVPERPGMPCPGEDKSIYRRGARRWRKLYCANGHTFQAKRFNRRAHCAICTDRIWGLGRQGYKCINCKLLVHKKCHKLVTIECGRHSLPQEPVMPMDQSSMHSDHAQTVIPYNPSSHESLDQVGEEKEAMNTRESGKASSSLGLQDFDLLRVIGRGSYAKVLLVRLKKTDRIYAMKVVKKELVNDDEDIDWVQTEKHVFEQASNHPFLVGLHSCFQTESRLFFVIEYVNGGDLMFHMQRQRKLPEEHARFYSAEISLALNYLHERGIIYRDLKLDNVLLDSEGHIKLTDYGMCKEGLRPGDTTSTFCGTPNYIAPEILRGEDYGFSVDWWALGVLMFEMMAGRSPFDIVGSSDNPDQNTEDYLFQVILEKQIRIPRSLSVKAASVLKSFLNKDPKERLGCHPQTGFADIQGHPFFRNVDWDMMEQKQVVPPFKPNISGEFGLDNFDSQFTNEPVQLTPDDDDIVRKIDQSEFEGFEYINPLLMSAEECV", "experiment": "mobility shift assay"}, "AurB": {"target": "T30, AurB (Homo sapiens, UniProt Q96GD4)", "T30 construct": "purchased Carna Biosciences", "experiment": "mobility shift assay"}, "EPHB1": {"target": "T31, EPHB1 (Homo sapiens, UniProt P54762)", "T31 construct": "purchased Carna Biosciences", "T31 sequence (P54762 18-984)": "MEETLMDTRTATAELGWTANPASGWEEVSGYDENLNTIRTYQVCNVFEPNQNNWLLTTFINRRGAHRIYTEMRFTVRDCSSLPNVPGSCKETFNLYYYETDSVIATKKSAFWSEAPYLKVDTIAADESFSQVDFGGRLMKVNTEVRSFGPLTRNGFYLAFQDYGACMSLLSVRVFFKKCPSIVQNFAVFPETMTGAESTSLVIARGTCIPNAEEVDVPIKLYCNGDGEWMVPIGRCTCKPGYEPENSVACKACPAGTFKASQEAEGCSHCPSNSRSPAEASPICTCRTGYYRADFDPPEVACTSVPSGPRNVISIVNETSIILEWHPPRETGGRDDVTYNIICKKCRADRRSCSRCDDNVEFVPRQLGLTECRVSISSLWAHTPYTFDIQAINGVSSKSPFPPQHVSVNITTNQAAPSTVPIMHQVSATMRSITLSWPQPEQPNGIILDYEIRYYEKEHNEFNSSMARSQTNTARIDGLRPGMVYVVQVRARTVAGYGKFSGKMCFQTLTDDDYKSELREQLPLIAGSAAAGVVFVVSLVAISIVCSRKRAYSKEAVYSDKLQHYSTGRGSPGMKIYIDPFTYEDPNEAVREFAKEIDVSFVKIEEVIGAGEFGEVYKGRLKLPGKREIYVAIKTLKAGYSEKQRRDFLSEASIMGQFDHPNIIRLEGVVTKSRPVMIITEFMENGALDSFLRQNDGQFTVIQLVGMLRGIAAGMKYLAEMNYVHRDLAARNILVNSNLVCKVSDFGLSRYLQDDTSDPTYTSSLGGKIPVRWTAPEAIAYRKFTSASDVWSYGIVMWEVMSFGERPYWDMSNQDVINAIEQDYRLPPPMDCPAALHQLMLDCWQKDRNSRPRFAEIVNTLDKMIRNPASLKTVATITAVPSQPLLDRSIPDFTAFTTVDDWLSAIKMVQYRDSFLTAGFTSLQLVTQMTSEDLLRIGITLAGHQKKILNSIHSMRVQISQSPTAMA", "experiment": "mobility shift assay"}, "FLT3": {"target": "T32, FLT3 (Homo sapiens, UniProt P36888)", "T32 construct": "purchased Carna Biosciences", "T32 sequence (P36888 27-993)": "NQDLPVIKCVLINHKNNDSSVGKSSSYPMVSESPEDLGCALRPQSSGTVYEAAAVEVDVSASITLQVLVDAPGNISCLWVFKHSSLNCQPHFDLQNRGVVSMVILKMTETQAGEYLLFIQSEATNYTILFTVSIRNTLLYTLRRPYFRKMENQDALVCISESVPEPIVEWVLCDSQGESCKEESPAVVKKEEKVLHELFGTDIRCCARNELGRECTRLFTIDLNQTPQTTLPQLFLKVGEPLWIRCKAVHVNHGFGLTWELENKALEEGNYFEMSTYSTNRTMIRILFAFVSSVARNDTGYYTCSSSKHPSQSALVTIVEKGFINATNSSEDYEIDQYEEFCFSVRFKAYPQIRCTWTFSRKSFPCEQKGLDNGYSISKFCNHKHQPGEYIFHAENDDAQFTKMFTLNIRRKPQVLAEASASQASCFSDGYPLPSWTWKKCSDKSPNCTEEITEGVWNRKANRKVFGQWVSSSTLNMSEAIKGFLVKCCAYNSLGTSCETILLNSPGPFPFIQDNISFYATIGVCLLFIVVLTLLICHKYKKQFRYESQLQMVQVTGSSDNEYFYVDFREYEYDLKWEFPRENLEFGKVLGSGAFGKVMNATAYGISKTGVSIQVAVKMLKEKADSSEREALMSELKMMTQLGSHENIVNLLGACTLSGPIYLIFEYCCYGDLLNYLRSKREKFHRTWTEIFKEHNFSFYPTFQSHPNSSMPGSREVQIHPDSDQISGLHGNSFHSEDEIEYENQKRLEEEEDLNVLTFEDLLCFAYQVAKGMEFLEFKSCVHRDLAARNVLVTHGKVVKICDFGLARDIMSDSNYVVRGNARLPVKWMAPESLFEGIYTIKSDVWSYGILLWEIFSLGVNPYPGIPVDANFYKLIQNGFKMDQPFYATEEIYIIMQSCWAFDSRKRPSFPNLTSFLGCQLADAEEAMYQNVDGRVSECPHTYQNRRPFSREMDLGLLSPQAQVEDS", "experiment": "mobility shift assay"}, "CDK7/CycHMAT1": {"target": "CDK7/CycHMAT1 (Homo sapiens, UniProt P50613)", "experiment": "IC50 by mobility shift assay", "details": "Table 2, mobility shift assay; read-out: IC50 (μM), Kinase CDK7/CycH/MAT1", "source_text": "(§1) The compounds produced in Production Examples described above were each assessed for its inhibitory activity against CDK7, PIM2, and PI3K by mobility shift assay. In addition, a combination showing the highest inhibitory activity against each kinase is indicated by italics."}, "PIM2": {"target": "PIM2 (Homo sapiens, UniProt Q9P1W9)", "sequence (Q9P1W9 whole entry)": "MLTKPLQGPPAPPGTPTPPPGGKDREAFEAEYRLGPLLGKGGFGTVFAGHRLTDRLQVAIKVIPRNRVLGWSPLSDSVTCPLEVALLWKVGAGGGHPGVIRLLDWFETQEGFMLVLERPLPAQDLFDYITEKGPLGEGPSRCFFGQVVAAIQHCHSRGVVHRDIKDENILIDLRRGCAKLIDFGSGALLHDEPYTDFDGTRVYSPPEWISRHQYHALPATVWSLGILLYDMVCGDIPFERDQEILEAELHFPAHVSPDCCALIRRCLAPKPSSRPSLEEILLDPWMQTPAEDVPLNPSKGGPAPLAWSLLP", "experiment": "IC50 by mobility shift assay", "details": "Table 2, mobility shift assay; read-out: IC50 (μM), Kinase PIM2", "source_text": "as §1"}, "CK1ε": {"target": "T33, CK1ε (Homo sapiens, UniProt P49674)", "T33 construct": "purchased Carna Biosciences", "T33 sequence (P49674 whole entry)": "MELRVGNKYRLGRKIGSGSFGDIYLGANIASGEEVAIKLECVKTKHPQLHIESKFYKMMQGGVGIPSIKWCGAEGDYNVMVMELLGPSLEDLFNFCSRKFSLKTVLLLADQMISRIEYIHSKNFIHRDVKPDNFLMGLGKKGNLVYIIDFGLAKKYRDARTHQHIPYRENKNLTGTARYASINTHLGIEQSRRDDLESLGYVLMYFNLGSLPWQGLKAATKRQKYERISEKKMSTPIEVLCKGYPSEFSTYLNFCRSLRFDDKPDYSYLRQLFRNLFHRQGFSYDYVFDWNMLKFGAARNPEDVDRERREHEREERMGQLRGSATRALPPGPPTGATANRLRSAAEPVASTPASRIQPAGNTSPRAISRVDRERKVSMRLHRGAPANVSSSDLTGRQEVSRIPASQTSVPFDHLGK", "experiment": "mobility shift assay"}, "MER": {"target": "T34, MER (Homo sapiens, UniProt Q12866)", "T34 construct": "purchased Carna Biosciences", "experiment": "mobility shift assay"}, "TAK1-TAB1_Cascade": {"target": "T35, TAK1-TAB1_Cascade (Homo sapiens, UniProt O43318)", "T35 construct": "purchased Carna Biosciences", "T35 sequence (O43318 with tags, fused parts or gaps limits assumed)": "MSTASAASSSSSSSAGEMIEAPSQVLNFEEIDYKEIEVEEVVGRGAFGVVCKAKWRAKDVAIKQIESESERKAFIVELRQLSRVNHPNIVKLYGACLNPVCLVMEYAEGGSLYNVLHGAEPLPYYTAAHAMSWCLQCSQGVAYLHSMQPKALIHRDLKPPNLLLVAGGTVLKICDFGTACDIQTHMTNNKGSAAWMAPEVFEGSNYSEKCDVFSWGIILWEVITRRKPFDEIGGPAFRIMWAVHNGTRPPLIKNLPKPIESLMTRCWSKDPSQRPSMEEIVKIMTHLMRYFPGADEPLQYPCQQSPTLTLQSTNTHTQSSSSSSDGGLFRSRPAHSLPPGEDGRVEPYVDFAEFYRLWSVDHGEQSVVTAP", "experiment": "mobility shift assay"}}}
{"compound": "C[C@@H]1CC[C@H]2C(C)(C)CCC[C@]2(C)c2c1oc1c(C=O)c(O)c(O)cc21", "note": "[LG-1, liphagal]", "values": [{"measurement": "inhibition at 10 µM", "setting": "HPK2", "value": 27, "unit": "%"}, {"measurement": "inhibition at 10 µM", "setting": "HPK4", "value": 18.2, "unit": "%"}, {"measurement": "inhibition at 10 µM", "setting": "OK1δ", "value": 4.1, "unit": "%"}, {"measurement": "inhibition at 10 µM", "setting": "RSK2", "value": 14.5, "unit": "%"}, {"measurement": "inhibition at 10 µM", "setting": "KIT(T670I)", "value": 5.4, "unit": "%"}, {"measurement": "inhibition at 10 µM", "setting": "KIT(V560G)", "value": 17.9, "unit": "%"}, {"measurement": "inhibition at 10 µM", "setting": "RSK1", "value": 34.3, "unit": "%"}, {"measurement": "inhibition at 10 µM", "setting": "LYNa", "value": 7.6, "unit": "%"}, {"measurement": "inhibition at 10 µM", "setting": "FGFR2", "value": -8.4, "unit": "%"}, {"measurement": "inhibition at 10 µM", "setting": "Erk5", "value": 0.6, "unit": "%"}, {"measurement": "inhibition at 10 µM", "setting": "EFHB2", "value": 5.4, "unit": "%"}, {"measurement": "inhibition at 10 µM", "setting": "EGFR(T790/L858R)", "value": -2.2, "unit": "%"}, {"measurement": "inhibition at 10 µM", "setting": "PKCα", "value": -8, "unit": "%"}, {"measurement": "inhibition at 10 µM", "setting": "SGK3", "value": -0.5, "unit": "%"}, {"measurement": "inhibition at 10 µM", "setting": "PIM 1", "value": 50.3, "unit": "%"}, {"measurement": "IC50", "setting": "CDK4/CycD3", "value": 19.9, "unit": "µM"}, {"measurement": "inhibition at 10 µM", "setting": "EPHA6", "value": 23, "unit": "%"}, {"measurement": "inhibition at 10 µM", "setting": "BLK", "value": 29.4, "unit": "%"}, {"measurement": "inhibition at 10 µM", "setting": "EPHA2", "value": 2.6, "unit": "%"}, {"measurement": "inhibition at 10 µM", "setting": "JAK3", "value": -7.2, "unit": "%"}, {"measurement": "inhibition at 10 µM", "setting": "ROCK2", "value": 2, "unit": "%"}, {"measurement": "inhibition at 10 µM", "setting": "SkMLCK", "value": -1.3, "unit": "%"}, {"measurement": "inhibition at 10 µM", "setting": "NEK4", "value": 8.7, "unit": "%"}, {"measurement": "inhibition at 10 µM", "setting": "p38δ", "value": -0.1, "unit": "%"}, {"measurement": "inhibition at 10 µM", "setting": "RON", "value": 7.8, "unit": "%"}, {"measurement": "inhibition at 10 µM", "setting": "FGR", "value": 9.3, "unit": "%"}, {"measurement": "inhibition at 10 µM", "setting": "NEK2", "value": 3.5, "unit": "%"}, {"measurement": "inhibition at 10 µM", "setting": "PDGFRα(V561D)", "value": 7.1, "unit": "%"}, {"measurement": "inhibition at 10 µM", "setting": "EGFR", "value": -4.4, "unit": "%"}, {"measurement": "inhibition at 10 µM", "setting": "PKCl", "value": 12.3, "unit": "%"}, {"measurement": "inhibition at 10 µM", "setting": "AurB", "value": 12.1, "unit": "%"}, {"measurement": "inhibition at 10 µM", "setting": "EPHB1", "value": 1.7, "unit": "%"}, {"measurement": "inhibition at 10 µM", "setting": "FLT3", "value": 2.1, "unit": "%"}, {"measurement": "IC50", "setting": "CDK7/CycHMAT1", "value": 1.27, "unit": "µM"}, {"measurement": "IC50", "setting": "PIM2", "value": 5.31, "unit": "µM"}, {"measurement": "inhibition at 10 µM", "setting": "CK1ε", "value": 37.7, "unit": "%"}, {"measurement": "inhibition at 10 µM", "setting": "MER", "value": 2.1, "unit": "%"}, {"measurement": "inhibition at 10 µM", "setting": "TAK1-TAB1_Cascade", "value": 13.9, "unit": "%"}]}
